Data from patent US20180021360A1, “Combination Therapy Regimen For Treatment Of Selected HCV Genotypes” (JANSSEN PHARMACEUTICALS, INC., priority 2016, published 2018).

Tests used:
BSEP = BSEP (Homo sapiens, UniProt O95342); conditions: cited from earlier work
[1] = PK of single agents vs fixed dose combinations, single dose in healthy volunteers (Example 13); format: in vivo, human
Protocol: SMV (100 mg), ODV (50 mg), and Compound (III) (800 mg) were administered as three different formulations or together as single doses in vivo to healthy volunteers. The arms of the study included: • Arm 1 (Reference Arm): Single oral doses of single agents, one SMV 100-mg capsule, one ODV 50-mg tablet as granule layered solid dispersion with copovidone and poloxamers, and two Compound (III) 400-mg tablets, administered together. • Arm 2: Single oral dose of fixed dose combination (FDC02): SMV 100 mg+ODV 50 mg as a spray dried solid dispersion with HPMC-AS L in a ratio ODV/HPMC-AS L 1/1 w/w+Compound (III) 800 mg • Arm 3: Single oral dose of fixed dose combination (FDC04): SMV 100 mg+ODV 50 mg as a spray dried solid dispersion with HPMC-AS L in a ratio ODV/HPMC-AS L 1/3 w/w+Compound (III) 800 mg • Arm 4: Single oral dose of fixed dose combination (FDC01): SMV 100 mg+ODV 50 mg as a spray dried solid dispersion with copovidone and poloxamers+Compound (III) 800 mg
PK parameters, including Cmax, tmax, AUClast, and AUC∞ were measured for Compound (III), ODV, SMV, and metabolites Compound A-1 and Compound A-3 for each Arm of the study. Arms that included fixed dose combinations (FDC) (Arm 2, Arm 3, and Arm 4) were then compared to a single oral dose (Arm 1, the reference Arm). Table 9, Table 10, Table 11, Table 12 and Table 13 display relevant PK parameters and FIG. 9, FIG. 10, FIG. 11, FIG. 12, and FIG. 13 depict the plasma concentration over time of SMV, ODV, Compound A-1, and Compound A-3 for each Arm of the study.

MRP2 = MRP2 (Homo sapiens, UniProt Q92887); conditions: cited from earlier work
MRP3 = MRP3 (Homo sapiens, UniProt O15438); conditions: cited from earlier work
MRP3, sequence (O15438 whole entry): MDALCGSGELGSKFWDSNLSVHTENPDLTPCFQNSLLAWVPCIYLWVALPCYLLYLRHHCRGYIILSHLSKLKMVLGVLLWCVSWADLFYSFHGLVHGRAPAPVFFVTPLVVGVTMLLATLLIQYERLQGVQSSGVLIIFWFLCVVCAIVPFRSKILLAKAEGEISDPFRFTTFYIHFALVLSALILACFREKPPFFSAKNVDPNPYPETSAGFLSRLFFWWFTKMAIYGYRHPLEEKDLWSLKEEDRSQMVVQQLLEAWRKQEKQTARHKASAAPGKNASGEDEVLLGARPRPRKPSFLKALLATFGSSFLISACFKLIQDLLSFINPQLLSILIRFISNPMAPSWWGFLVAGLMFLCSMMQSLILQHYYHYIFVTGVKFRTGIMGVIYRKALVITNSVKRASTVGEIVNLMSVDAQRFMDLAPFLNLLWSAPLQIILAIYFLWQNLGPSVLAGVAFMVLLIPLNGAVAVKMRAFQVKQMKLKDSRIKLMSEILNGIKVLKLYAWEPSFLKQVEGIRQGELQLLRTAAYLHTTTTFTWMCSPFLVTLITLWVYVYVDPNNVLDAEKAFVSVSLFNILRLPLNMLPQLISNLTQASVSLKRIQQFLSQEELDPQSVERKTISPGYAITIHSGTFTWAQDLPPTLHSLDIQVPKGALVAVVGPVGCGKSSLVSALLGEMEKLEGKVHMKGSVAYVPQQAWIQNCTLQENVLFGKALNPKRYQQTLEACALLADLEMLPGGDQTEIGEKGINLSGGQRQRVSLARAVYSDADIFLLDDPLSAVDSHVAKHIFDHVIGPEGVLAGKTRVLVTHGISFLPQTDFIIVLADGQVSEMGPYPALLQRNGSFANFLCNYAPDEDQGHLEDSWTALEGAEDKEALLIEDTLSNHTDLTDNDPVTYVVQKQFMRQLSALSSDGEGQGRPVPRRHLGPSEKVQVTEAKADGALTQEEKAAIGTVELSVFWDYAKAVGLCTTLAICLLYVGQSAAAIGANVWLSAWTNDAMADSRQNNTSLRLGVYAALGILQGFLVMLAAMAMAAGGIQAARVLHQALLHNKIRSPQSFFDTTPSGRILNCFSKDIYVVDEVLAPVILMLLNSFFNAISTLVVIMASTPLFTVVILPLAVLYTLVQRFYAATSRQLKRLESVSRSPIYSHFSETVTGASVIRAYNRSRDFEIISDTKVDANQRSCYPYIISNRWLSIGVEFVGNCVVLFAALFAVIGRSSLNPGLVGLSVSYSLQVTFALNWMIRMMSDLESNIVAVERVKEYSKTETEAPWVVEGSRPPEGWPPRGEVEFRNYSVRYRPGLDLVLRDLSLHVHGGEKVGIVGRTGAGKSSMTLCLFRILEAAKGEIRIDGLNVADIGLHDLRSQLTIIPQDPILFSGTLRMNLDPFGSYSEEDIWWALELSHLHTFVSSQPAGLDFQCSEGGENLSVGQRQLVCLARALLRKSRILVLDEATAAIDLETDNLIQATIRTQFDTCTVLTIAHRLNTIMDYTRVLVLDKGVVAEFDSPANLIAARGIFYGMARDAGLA

BSEP, sequence (O95342 whole entry): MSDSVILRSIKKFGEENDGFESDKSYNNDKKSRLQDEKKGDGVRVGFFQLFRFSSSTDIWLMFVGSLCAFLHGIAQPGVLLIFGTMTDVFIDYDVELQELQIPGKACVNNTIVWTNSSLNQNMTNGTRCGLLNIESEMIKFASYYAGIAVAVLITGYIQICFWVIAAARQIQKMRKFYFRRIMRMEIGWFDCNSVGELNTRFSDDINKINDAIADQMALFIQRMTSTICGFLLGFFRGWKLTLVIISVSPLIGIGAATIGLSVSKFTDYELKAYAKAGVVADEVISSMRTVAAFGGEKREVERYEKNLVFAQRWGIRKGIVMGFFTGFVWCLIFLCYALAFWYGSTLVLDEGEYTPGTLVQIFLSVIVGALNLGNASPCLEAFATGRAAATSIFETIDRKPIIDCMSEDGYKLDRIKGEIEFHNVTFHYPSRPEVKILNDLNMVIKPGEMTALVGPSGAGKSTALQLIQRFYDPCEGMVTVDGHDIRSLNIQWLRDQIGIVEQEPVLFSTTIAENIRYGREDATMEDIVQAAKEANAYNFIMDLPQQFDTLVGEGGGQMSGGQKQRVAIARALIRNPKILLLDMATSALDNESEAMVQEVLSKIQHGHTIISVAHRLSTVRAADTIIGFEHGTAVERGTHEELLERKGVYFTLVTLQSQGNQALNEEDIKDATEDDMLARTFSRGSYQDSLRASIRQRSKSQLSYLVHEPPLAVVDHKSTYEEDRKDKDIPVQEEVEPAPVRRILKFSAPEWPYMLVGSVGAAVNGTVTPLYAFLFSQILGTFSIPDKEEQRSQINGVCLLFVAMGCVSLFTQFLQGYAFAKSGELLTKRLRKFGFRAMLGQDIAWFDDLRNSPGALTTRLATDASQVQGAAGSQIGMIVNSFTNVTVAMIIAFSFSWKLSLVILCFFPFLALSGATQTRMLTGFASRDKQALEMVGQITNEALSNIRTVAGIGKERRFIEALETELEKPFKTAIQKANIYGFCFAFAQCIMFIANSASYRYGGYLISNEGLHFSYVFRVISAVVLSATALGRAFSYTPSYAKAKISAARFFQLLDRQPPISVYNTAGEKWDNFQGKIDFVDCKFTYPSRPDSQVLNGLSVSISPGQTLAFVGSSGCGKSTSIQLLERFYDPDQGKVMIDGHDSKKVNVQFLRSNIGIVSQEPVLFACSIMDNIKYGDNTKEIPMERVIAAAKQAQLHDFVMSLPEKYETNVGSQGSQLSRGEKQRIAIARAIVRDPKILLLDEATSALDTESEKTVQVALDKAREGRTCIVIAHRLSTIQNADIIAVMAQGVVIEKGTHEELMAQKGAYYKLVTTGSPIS
MRP2, sequence (Q92887 whole entry): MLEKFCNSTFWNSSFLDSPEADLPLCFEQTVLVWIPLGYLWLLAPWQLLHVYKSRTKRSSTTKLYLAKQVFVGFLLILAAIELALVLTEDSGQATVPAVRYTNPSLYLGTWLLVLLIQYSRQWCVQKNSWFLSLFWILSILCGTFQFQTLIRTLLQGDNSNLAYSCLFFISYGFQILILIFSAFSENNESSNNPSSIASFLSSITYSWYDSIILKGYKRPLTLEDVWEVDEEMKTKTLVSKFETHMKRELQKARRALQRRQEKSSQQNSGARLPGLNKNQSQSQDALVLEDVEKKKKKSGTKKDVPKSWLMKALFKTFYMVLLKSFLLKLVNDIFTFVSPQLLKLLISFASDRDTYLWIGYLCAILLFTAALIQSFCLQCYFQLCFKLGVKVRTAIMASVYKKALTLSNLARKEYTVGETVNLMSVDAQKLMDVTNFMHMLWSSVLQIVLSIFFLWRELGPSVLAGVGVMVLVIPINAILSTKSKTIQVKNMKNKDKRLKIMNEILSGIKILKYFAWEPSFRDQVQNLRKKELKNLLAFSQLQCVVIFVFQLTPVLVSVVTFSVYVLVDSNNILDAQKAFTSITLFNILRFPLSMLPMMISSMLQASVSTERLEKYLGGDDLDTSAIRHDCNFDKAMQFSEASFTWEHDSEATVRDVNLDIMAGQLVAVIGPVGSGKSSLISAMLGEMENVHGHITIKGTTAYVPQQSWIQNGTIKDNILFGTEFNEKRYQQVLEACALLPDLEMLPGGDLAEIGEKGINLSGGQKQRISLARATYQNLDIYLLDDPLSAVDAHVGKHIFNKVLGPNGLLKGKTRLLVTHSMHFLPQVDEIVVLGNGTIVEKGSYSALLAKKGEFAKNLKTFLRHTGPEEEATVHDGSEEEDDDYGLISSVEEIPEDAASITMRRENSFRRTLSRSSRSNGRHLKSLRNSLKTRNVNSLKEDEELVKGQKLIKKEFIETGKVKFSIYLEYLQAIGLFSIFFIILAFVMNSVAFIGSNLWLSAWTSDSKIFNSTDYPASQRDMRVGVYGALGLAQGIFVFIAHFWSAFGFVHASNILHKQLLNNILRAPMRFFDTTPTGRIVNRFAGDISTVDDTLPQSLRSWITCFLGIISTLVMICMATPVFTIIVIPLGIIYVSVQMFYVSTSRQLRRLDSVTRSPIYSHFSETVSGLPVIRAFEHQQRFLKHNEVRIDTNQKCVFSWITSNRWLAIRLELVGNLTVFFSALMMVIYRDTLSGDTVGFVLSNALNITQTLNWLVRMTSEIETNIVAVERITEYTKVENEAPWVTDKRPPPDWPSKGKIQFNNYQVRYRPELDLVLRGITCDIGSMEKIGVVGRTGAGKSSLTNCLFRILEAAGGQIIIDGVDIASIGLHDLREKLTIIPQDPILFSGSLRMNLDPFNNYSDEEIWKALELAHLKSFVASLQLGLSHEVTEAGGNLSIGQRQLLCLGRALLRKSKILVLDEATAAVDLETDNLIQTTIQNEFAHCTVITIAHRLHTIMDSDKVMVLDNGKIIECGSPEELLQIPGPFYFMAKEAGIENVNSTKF

## COC(=O)N[C@H](C(=O)N1[C@H](c2nc3cc(-c4cc5ccc4CCc4ccc(c(-c6ccc7[nH]c([C@@H]8C[C@@H]9CCCC[C@@H]9N8C(=O)[C@@H](NC(=O)OC)C(C)C)nc7c6)c4)CC5)ccc3[nH]2)C[C@@H]2CCCC[C@@H]21)C(C)C [Odalasvir, methyl [(2,)-1-[(2S,3aS,7aS)-2-[6-[11-[2-[(2S,3aS,7aS)-1-[(2S)-2-[(methoxycarbonyl)amino]-3-methylbutanoyl]octahydro-1H-indol-2-yl]-1H-benzimidazol-6-yl]tricyclo[8.2.2.2^4,7]hexadeca-1(12),4,6,10,13,15-hexaen-5-yl]-1H-benzimidazol-2-yl]octahydro-1H-indol-1-yl]-3-methyl-1-oxobutan-2-yl]carbamate]
BSEP
  in vitro inhibition of BSEP: no inhibition
[1]; Arm 1 (reference): single agents, mean ± SD
  t1/2term: 168.6 ± 21.7 h
[1]; Arm 2 (FDC02) vs reference
  Least Square Means Ratio, Cmax: 81.00%
[1]; Arm 2: FDC02, mean ± SD
  AUC∞: 7040 ± 2130 ng·h/mL
  t1/2term: 169.0 ± 24.5 h
[1]; Arm 3: FDC04, mean ± SD
  t1/2term: 176.0 ± 29.5 h
[1]; Arm 4: FDC01 (SMV 100 mg + ODV 50 mg spray dried with copovidone and poloxamers + Compound (III) 800 mg), mean ± SD
  Cmax: 298 ± 81.7 ng/mL
[1]; Arm 4: FDC01, mean ± SD
  AUClast: 11127 ± 3354 ng·h/mL
  t1/2term: 167.8 ± 22.4 h
MRP2
  in vitro inhibition of MRP2: no inhibition
MRP3
  in vitro inhibition of MRP3: no inhibition
